Laboratory results reported in ChEMBL document CHEMBL1132896, “Beta-casomorphins: substitution of phenylalanine with beta-homo phenylalanine increases the mu-type opioid receptor affinity” (Bioorg Med Chem Lett, 2000).
Non-standard residues stand in square brackets, D forms with d. Residues, ends and D or L forms follow the SMILES beside them. β3hF = N[C@H](CC(=O)O)Cc1ccccc1

Assays:
[1] = target: T1, Mu-type opioid receptor (Rattus norvegicus, UniProt P33535); test: Compound was evaluated for the binding affinity of Opioid receptor mu 1 by displacing the radioligand [3H]DAMGO from rat brain membrane
[2] = target: T1, Mu-type opioid receptor; test: Inhibitory concentration against [3H]DAMGO binding to Opioid receptor mu 1 in rat brain membrane; type: cell membranes

T1 sequence (P33535 whole entry): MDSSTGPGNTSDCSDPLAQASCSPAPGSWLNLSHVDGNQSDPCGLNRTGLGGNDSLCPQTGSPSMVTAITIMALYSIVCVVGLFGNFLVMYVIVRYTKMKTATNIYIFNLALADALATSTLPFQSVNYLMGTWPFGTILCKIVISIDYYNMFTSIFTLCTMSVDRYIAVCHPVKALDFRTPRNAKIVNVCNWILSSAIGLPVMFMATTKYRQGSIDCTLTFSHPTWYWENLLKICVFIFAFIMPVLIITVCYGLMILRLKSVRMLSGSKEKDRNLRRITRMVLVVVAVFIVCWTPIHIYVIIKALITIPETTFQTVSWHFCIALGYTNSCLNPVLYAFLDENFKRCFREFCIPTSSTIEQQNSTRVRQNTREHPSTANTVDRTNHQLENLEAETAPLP

SMILES | Ki [1] | IC50 [2]
CC[C@H](C)[C@H](NC(=O)[C@@H]1CCCN1C(=O)CNC(=O)[C@@H]1CCCN1C(=O)C[C@H](Cc1ccccc1)NC(=O)[C@@H]1CCCN1C(=O)[C@@H](N)Cc1ccc(O)cc1)C(=O)O (H-YP[β3hF]PGPI-OH) | 1.44 µM | 4 µM
N[C@@H](Cc1ccc(O)cc1)C(=O)N1CCC[C@H]1C(=O)N[C@@H](Cc1ccccc1)C(=O)N1CCC[C@H]1C(=O)NCC(=O)O (H-YPFPG-OH) | 1.62 µM | 4.5 µM
N[C@@H](Cc1ccc(O)cc1)C(=O)N1CCC[C@H]1C(=O)N[C@H](CC(=O)N1CCC[C@H]1C(=O)NCC(=O)O)Cc1ccccc1 (H-YP[β3hF]PG-OH) | 0.72 µM | 2 µM
CC[C@H](C)[C@H](NC(=O)[C@@H]1CCCN1C(=O)CNC(=O)[C@@H]1CCCN1C(=O)[C@H](Cc1ccccc1)NC(=O)[C@@H]1CCCN1C(=O)[C@@H](N)Cc1ccc(O)cc1)C(=O)O (H-YPFPGPI-OH) | 7.54 µM | 20 µM
